Patent US11008612B2, “Methods and apparatus for single molecule sequencing using energy transfer detection” (Life Technologies Corporation, priority 2009, dated 2021)

What was measured:
[1] = solubility of core nanoparticles in solvents
Excerpt: The solubility of the aliquoted samples was observed. […] Six of the aliquoted samples were centrifuged and the resulting clear, colorless supernatants were discarded.

[2] = system: duplex Alexa fluor 546 dye-labeled-DNA template and AF647-C6-dG6P; assay: Stopped-flow measurements of tpol (nucleotide incorporation kinetics); format: biochemical; details: 330 nM polymerase, 100 nM template/primer duplex, 7 μM AF647-C6-dG6P, 2 mM MnCl2; tpol = 1/kpol
Protocol: The kinetics of nucleotide incorporation by B103 (exo-) (SEQ ID NO:5) and an H370R mutant (SEQ ID NO:3) DNA polymerases were measured in an Applied Photophysics SX20 stopped-flow spectrometer by monitoring changes in fluorescence from a duplex Alexa fluor 546 dye-labeled-DNA template following the mixing of the enzyme-DNA complex with dye-labeled nucleotides (AF647-C6-dG6P) in the reaction buffer containing 50 mM Tris-HCl, pH 7.5, 50 mM NaCl, 4 mM DTT, 0.2% BSA, and 2 mM MnCl2. The reactions included 330 nM recombinant DNA polymerase, 100 nM template/primer duplex, and 7 μM labeled nucleotides.
The averaged (5 traces) stopped-flow fluorescence traces (>1.5 ms) were fitted with a double exponential equation (1) to extrapolate the rates of the nucleotide binding and product release, Fluorescence=A1*e^−k^1^*t+A2*e^−k^pol^*t+C (equation 1) where A1 and A2 represent corresponding fluorescence amplitudes, C is an offset constant, and k1 and kpol are the observed rate constants for the fast and slow phases of the fluorescence transition, respectively. The dye-labeled nucleotides comprise terminal-phosphate-labeled nucleotides having an alkyl linker with a functional amine group attached to the dye. The stopped-flow techniques for measuring tpol (1/kpol) followed the techniques described by M P Roettger (2008 Biochemistry 47:9718-9727; M. Bakhtina 2009 Biochemistry 48:3197-320). 2) B103 Polymerase: Stopped-Flow Measurements of t−1

[3] = system: [enzyme⋅DNA⋅labeled nucleotide] ternary complex (AF647-C6-dG6P); assay: Stopped-flow measurements of t−1 (nucleotide dissociation from ternary complex); format: binding; details: ternary complex mixed with 50 μM cognate non-labeled dNTP, 2 mM MnCl2; t−1 = 1/k−1
Protocol: The rate of the nucleotide dissociation (k−1) from the ternary complex of [enzyme⋅DNA⋅nucleotide] was measured in an Applied Photophysics SX20 stopped-flow spectrometer by monitoring changes […] a duplex Alexa fluor 546 dye-labeled-DNA template following the mixing of the [enzyme⋅DNA⋅labeled nucleotide] ternary complex with 50 μM cognate non-labeled deoxynucleoside triphosphate in a buffer containing 50 mM Tris-HCl (pH 7.5), 50 mM NaCl, 4 mM DTT, 0.2% BSA, and 2 mM MnCl2.
The ternary complexes were prepared using: 330 nM polymerase, 100 nM template/primer duplex, and 7 μM terminal phosphate-labeled nucleotides (AF647-C6-dG6P).
The averaged stopped-flow fluorescence traces (>1.5 msec) were fitted with a single exponential equation (2) to extrapolate the rate of the nucleotide dissociation (k−1) from the [enzyme⋅DNA⋅nucleotide] ternary complex. Fluorescence=A1*e^−k^−1^*t+C (equation 2) where A1 represents the corresponding fluorescence amplitude, C is an offset constant, and k−1 and the observed rate constants for the fluorescence transition. The stopped-flow techniques for measuring t−1 (1/k−1) followed the techniques described by M. Bakhtina (2009 Biochemistry 48:3197-3208).

[4] = system: template; assay: template extension activity (DNA extension assay); format: biochemical; details: stock unconjugated polymerase
Protocol: A 150 nM master mix solution of a labeled hairpin oligonucleotide 221 was prepared by diluting the appropriate quantity of a 50 μM stock solution with extension buffer (50 mM TRIS, pH 8, 50 mM NaCl, 10 mM MgCl2). 450 μl of a master mix was prepared for each sample being tested.
The conjugate being tested was diluted in 450 μl of the master mix such that the final concentration of the conjugate is in the range of 10 nM to 50 nM. The positive control samples of free PKAΦ29 were similarly diluted. The sample solution was deposited in four microtiter plate wells, at 100 μl/well.
The microtiter plate was placed in a plate reader (Molecular Devices, SpectraMax M5) and set up to monitor the fluorescence as function of time (excitation 490 nm, emission 535 nm, cutoff filter 515 nm). Just prior to starting the plate reader, 2 μl of 1 mM dATP was added to each of two microtiter wells to start the extension reaction. The other two microtiter wells with sample represent no extension controls. The plate was read for an hour or until the samples reached saturation. […]

Row | Compound | t−1 [3] | solubility in solvents [1] | tpol [2] | DNA extension assay [4] [base/sec/enzyme]
1 | CCOC(=O)CCCCCP(=O)(O)O [6-ethoxy-6-oxohexylphosphonic acid] | – | not soluble in hexane | – | –
2 | K509Y: B103 polymerase with amino acid substitution K509Y | 20 | – | 10 | –
3 | stock HP1-B104-H370R (exo-) polymerase: stock His-tagged HP1-B103 H370R exo- polymerase (SEQ ID NO:3) | – | – | – | 0.29

Second part, led by results:

Row | t−1 [3] | Compound | solubility in solvents [1] | tpol [2] | DNA extension assay [4] [base/sec/enzyme]
4 | 16 | B103 (exo-): B103 (exo-) DNA polymerase (SEQ ID NO:5) | – | 14 | –
5 | 43 | H370R: H370R mutant B103 DNA polymerase (SEQ ID NO:3) | – | 17 | –
